These results are taken from paper PMC5826917, “A small molecule inhibitor of Nicotinamide N-methyltransferase for the treatment of metabolic disorders” (Scientific Reports, 2018).

As a reminder, the IC50 is the concentration at which inhibition is half-maximal. A low value points to greater potency. What is called share remaining is the share of the starting amount still present when the sample was taken. A low value points to more turnover.

One data set concerns the target Niacin receptor (NAR1) (Homo sapiens, UniProt Q8TDS4). The experiment in a line: Selectivity panel: NAR1. The following applies: 10 µM. Format: cell-based.
Another data set has as its target Dopamine Receptor 1 (D1) (Homo sapiens, UniProt P21728). In words: Selectivity panel: D1. Type of data set: cell-based. How it is done:
Supplement 41598_2018_22081_MOESM1_ESM.docx, table 2: Supplementary table 2: Selectivity profile of JBSNF-000088 (at 10 µM) vs a panel of 34 receptors, channels and enzymes. | column: E% (agonistic); I% (antagonistic or inhibitory)

Data set [1] deals with endogenous NNMT activity in U2OS cells. The experiment in a line: Cell based U2OS assay (MNA levels by LC-MS/MS). As to conditions: Homo sapiens, 24 h treatment. How it is done: PE-Sciex API-4000 triple quadrupole (PerkinElmerSciex Instruments, Boston, MA) mass spectrometer was employed for this analysis. […] Detection of the ions was performed in the multiple reaction monitoring (MRM) mode, monitoring the transition of the m/z 137 precursor ion to the m/z 92 product ion for MNA and m/z 141 precursor ion to the m/z 84 product ion for d4-MNA (internal standard).
The supernatant was separated and transferred to pre-labeled HPLC vials and analyzed by LC-MS/MS system.

The subject of a further data set is ob/ob mice. In words: Chronic efficacy study in ob/ob mice. Type of data set: in vivo, mouse. The procedure:
(§1) Samples for MNA were analyzed employing a fit-for-purpose LC-MS/MS method. PE-Sciex API-4000 triple quadrupole (PerkinElmerSciex Instruments, Boston, MA) mass spectrometer was employed for this analysis. Samples (5 µL) were injected onto Kinetex HILIC (50 × 4.6 mm, 2.6 µm; Phenomenex, Torrance, CA, USA) column connected to Shimadzu VP (Shimadzu, Japan) LC system. The gradient mobile phase mixture of 0.2% formic acid and acetonitrile was delivered at a flow rate of 0.45 ml min-1 into the mass spectrometer electrospray ionization (ESI) chamber. Quantitation was achieved by MS/MS detection in positive ion mode for MNA and internal standard (d4–MNA). Detection of the ions was performed in the multiple reaction monitoring (MRM) mode, monitoring the transition of the m/z 137 precursor ion to the m/z 92 product ion for MNA and m/z 141 precursor ion to the m/z 84 product ion for d4-MNA (internal standard).
(§2) A simple protein precipitation extraction method was followed for extraction of N-methylnicotinamide from plasma and various tissue homogenate samples. The tissue samples were homogenized with 1:3 proportions of phosphate buffer saline (PBS) and this homogenate was used for N-Methylnicotinamide determinations. To an aliquot of ~50 μL of plasma/ liver homogenate/ adipose tissue homogenate samples ~300 µl of acetonitrile containing IS (d4-MNA) solution was added, followed by vortex for ~3 minutes and centrifuged for 10 minutes at 14,000 rpm. The supernatant was separated and transferred to pre-labeled HPLC vials and analyzed by LC-MS/MS system.
(§3) Male C57BL6/N (Vivo Bio Tech Ltd, India), ob/ob (B6.V-Lepob/OlaHsd) and its lean control (Envigo laboratories Inc, USA) and db/db (BKS.Cg- + Leprdb/ + Leprdb/OlaHsd) and its lean control (Envigo laboratories Inc, USA) were housed in individually ventilated cages (n = 5/cage) under standard laboratory conditions. The study room environment was maintained at a temperature of 21–24 °C and, relative humidity at 40–70%. The animal rooms were maintained under 12 h light and dark cycle. Animals were provided with ad libitum access to water and food (except where noted otherwise, e.g. during fasting prior for glucose tolerance tests, fasting prior to terminal sacrifice). Animals were acclimatized for 1 week before initiation of studies. For Diet induced obesity (DIO) mice study, C57BL6/N mice were maintained on rodents chow diet (Teklad; Harlan) or HFD (60% Kcal; Research diet) for 14 weeks before study initiation and throughout the study period. ob/ob and db/db mice and their lean controls were maintained on rodents chow diet (Teklad; Harlan). All the experiments were approved by Institutional Animal Ethics Committee (IAEC) of Jubilant Biosys Ltd, India.
Lean control + Vehicle and HFD + Vehicle Control groups (G1 and G2) mice were administered with vehicle. Dose formulations of HFD + JBSNF-000088, 50 mg kg^−1, po, bid were administered at dose volume of 5 mL kg^−1 body weight to G3 mice. Similar pattern was followed for ob/ob mice and db/db mice studies. The dose volume for individual animals was calculated based on the most recently recorded body weight during the study period. […] Cage side observations of animals for visible clinical signs, was carried out once daily throughout the study period. Individual animal body weights were recorded twice weekly during the study period.
The ob/ob mice were 12 weeks of age at the start of the study and db/db mice were 8 weeks of age at the start of the study. DIO mice were 20 weeks of age at the start of the study. In each study, non-diabetic lean mice comprised the control group which received vehicle (0.5% w/v HEC and 0.5% v/v Tween 80) and obese or diabetic mice were randomly assigned to two groups based on body weight and unfasted glucose which received either vehicle (0.5% w/v HEC and 0.5% v/v Tween 80) or JBSNF-000088, 50 mg kg^−1, po, bid for 30 days.

For a further data set, the system named is db/db mice. In words: Chronic efficacy study in db/db mice. The following applies: db/db mice. How it is done: as §1, §2
(§4) Samples for methylated JBSNF-000088 were analyzed employing a fit-for-purpose LC-MS/MS method. PE-Sciex API-5500 triple quadrupole (PerkinElmerSciex Instruments, Boston, MA) mass spectrometer was employed for this analysis. Samples (2 µL) were injected onto Atlantis dC18 (50 × 4.6 mm, 3 µm; Waters, Milford, MA, USA) column connected to Shimadzu VP (Shimadzu, Japan) LC system. The gradient mobile phase mixture of 0.2% formic acid and acetonitrile was delivered at a flow rate of 0.9 mL min-1 into the mass spectrometer electrospray ionization (ESI) chamber. Quantitation was achieved by MS/MS detection in positive ion mode for methylated JBSNF-000088 and internal standard (Tolbutamide). Detection of the ions was performed in the multiple reaction monitoring (MRM) mode, monitoring the transition of the m/z 168 precursor ion to the m/z 128.8, product ion for MNA and m/z 271 precursor ion to the m/z 91 product ion for tolbutamide (internal standard).
as §3
(§5) Lean control + Vehicle and HFD + Vehicle Control groups (G1 and G2) mice were administered with vehicle.

A short description of the next data set: in vivo. The following applies: male, db/db (BKS.Cg- + Leprdb/ + Leprdb/OlaHsd), mouse, in vivo, JBSNF-000088 (μM). The procedure:
as §1, §2, §4, §3, §5

The nature of the next data set: in vitro. The following applies: human, microsomes, Metabolic stability human microsomes (% remaining).
The mark [2] stands for this setting: 30 days, p < 0.0001 vs vehicle control.

Structures are written as SMILES.

Chain of Dopamine Receptor 1 (D1) (P21728 whole entry): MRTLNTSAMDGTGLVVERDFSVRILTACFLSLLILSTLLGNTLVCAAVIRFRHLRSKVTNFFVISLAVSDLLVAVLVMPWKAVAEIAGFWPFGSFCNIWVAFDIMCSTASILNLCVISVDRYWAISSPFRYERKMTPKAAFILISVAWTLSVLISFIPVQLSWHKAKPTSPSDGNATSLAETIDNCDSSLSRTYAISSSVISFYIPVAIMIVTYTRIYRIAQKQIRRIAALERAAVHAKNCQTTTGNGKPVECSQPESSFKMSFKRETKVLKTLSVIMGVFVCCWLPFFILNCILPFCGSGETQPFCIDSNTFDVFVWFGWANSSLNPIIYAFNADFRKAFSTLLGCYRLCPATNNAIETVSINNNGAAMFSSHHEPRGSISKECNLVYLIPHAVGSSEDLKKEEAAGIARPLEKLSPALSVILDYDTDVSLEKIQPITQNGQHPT
Chain of Niacin receptor (NAR1) (Q8TDS4 whole entry): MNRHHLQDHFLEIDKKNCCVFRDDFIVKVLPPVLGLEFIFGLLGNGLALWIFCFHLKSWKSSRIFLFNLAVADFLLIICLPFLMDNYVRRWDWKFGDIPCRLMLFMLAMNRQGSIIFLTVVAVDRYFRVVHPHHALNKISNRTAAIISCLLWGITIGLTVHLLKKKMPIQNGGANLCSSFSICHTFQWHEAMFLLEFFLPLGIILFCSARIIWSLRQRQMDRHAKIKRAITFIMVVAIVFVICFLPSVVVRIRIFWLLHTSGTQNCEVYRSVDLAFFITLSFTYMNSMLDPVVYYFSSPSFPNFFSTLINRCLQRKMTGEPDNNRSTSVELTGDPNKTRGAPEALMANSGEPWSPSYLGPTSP

Consider `COc1ccc(C(N)=O)cn1` [JBSNF-000088, 6-methoxynicotinamide], for which, at Niacin receptor (NAR1), the “E% (agonistic), NAR1” value is -3%. Besides, the “E% (agonistic), D1” value at Dopamine Receptor 1 (D1) (10 µM) is 0%. In addition, the inhibition at 10 µM at Dopamine Receptor 1 (D1) (read-out: I% (antagonistic or inhibitory), D1) is -3%. Further, the IC50 in data set [1] was found to be 1600 nM. The body weight gain entry was “gained comparable weight” in the data set with ob/ob mice (50 mg/kg b.i.d p.o., 30 days, vs vehicle) and “gained comparable weight” in the data set on db/db mice (50 mg kg^−1 bid, four weeks, vs vehicle). Moreover, in the data set with ob/ob mice (setting [2]), the “MNA levels in visceral WAT and subcutaneous fat” value is “statistically significant reduction”. Further, in the data set on ob/ob mice (day 21, vs vehicle control), the “fed blood glucose or insulin” value is listed as “no reduction”. Also, the glucose tolerance result with ob/ob mice (day 28) is listed as “statistically significant improvement”; in the data set on db/db mice (day 26, not statistically significant), “trend towards improvement”. The “AUC blood glucose (OGTT)” value is on record as “significantly (p < 0.001) lower” with ob/ob mice (day 28, p < 0.001 vs vehicle control) and “Slightly lower” in the data set on db/db mice (vs vehicle control). The plasma insulin result in the data set with ob/ob mice (fed days 7, 14 or 21, fasting day 28, 15 minutes after glucose bolus) was “not accompanied by a reduction in plasma insulin”. For the same compound, the HOMA-IR index entry with ob/ob mice (p < 0.001 vs vehicle control) is “statistically significant improvement”. Besides, the cumulative food intake result in the data set on ob/ob mice (vs vehicle) and with db/db mice (vs vehicle) was “comparable” throughout. Besides, the HOMA-IR result in the data set on db/db mice is reported as “no change”. Further, the “MNA levels in liver and visceral WAT and s/c fat” value with db/db mice (setting [2]) is on record as “statistically significant reduction”. For the same compound, the fed blood glucose entry in the data set with db/db mice (day 21, p < 0.001 vs vehicle control) was “moderate but statistically significant reduction”. Besides, the “Fed insulin levels on days 7, 14 and 21 and fasting insulin levels on day 28” value in the data set on db/db mice (vs vehicle) is given as “not different”. Besides, the concentration at 1 h in the data set “in vivo” (plasma) is 275 ± 39 µM; in “in vivo” (subcutaneous fat), 6.94 ± 1.52 µM; in “in vivo” (visceral fat), 7.14 ± 2.18 µM. In the data set “in vitro”, this compound registered a share remaining at 0.5 h greater than 70%.
